In one data set the test system is PANC-1 and KP4 cells. Nature of the data set: Cell death manner assay (co-treatment with death pathway inhibitors, CCK-8). In kind it is cell-based. To be noted: 10 µM Z-VAD-FMK, 5 mM 3-MA, 10 µM Nec-1, 10 µM Fer-1 with ZQJ29, 24 h. The protocol: To investigate the mechanism of ZQJ29 in pancreatic cancer proliferation inhibition, the manners of cell death were analyzed. The cell apoptosis inhibitor Z‐VAD‐FMK, cell autophagy inhibitor 3‐methyladenine, cell necrosis inhibitor necrostatin‐1, cell ferroptosis inhibitor Ferrostatin‐1, and cell ferroptosis agonist Erastin were purchased […] (MCE, USA) and stored at −20 °C. PANC‐1 and KP4 cells were seeded with a density of 2000 cells/100 µL well^−1 into 96 well plates. After 24 h, 10 µM Z‐VAD‐FMK, 5 mM 3‐methyladenine, 10 µM necrostatin‐1, 10 µM Ferrostatin‐1, and 10 µM Erastin were added and co‐incubated with ZQJ29 (1 µM), respectively, for 24 h. Then, 10 µL CCK‐8 was added and incubated at 37 °C for an additional 1 h, the absorbance was measured at 450 nm. The percentage of viability was calculated.

Another data set has as its system PANC-1. Briefly: CCK-8 cytotoxicity assay, PANC-1. In kind it is cell-based. To be noted: PANC-1, 72 h, average of 3 parallel tests. On the procedure:
(§1) Cell viability was evaluated using the Cell Counting Kit‐8 (Beyotime, Shanghai, China) assay. Cells were seeded in 96‐well plates at a density of 2×10^3 cells to allow for attachment. After treatment with ZQJ29 (0.001, 0.01, 0.1, 10, and 25 µM) for 24, 48, and 72 h, 10 µL of CCK‐8 solution was added to each well and incubated for 1 h. The optical density values were then measured at 450 nm using a multifunctional enzyme‐linked immunosorbent assay reader (Tecan, Spark, Switzerland).
For orientation: Tetrazolium assays rely on reduction of a dye to a coloured formazan, in cell work by metabolically active cells.

The test system of the next data set is KP4. Nature of the data set: CCK-8 cytotoxicity assay, KP4. In kind it is cell-based. As to conditions: KP4, 72 h, average of 3 parallel tests. On the procedure: as §1
The next data set relates to A549. Briefly: CCK-8 cytotoxicity assay, A549. In kind it is cell-based. To be noted: A549, 72 h. On the procedure: as §1
Another data set has as its system H1975. Briefly: CCK-8 cytotoxicity assay, H1975. In kind it is cell-based. On the procedure:
as §1

The next data set deals with MCF. Briefly: CCK-8 cytotoxicity assay, MCF. In kind it is cell-based. As to conditions: 72 h. The protocol: as §1
The next data set relates to HeLa. Briefly: CCK-8 cytotoxicity assay, HeLa. In kind it is cell-based. As to conditions: 72 h. On the procedure: as §1
A further data set relates to HCT116. Nature of the data set: CCK-8 cytotoxicity assay, HCT116. To be noted: HCT116, 72 h. In kind it is cell-based. The protocol: as §1
The test system of a further data set is JHH7. Briefly: CCK-8 cytotoxicity assay, JHH7. To be noted: JHH7, 72 h. In kind it is cell-based. The protocol: as §1
Another data set relates to HEK-293T. Briefly: CCK-8 cytotoxicity assay, HEK-293T (normal cell line). The format is cell-based. To be noted: 72 h. On the procedure:
as §1

Another data set deals with LX2. Nature of the data set: CCK-8 cytotoxicity assay, LX2 (normal cell line). The format is cell-based. The protocol:
as §1

For the next data set, the system named is THLE-2. Nature of the data set: CCK-8 cytotoxicity assay, THLE-2 (normal cell line). The format is cell-based. To be noted: 72 h. The protocol: as §1
A further data set deals with HPDE6-C7. Briefly: CCK-8 cytotoxicity assay, HPDE6-C7 (normal cell line). In kind it is cell-based. On the procedure: as §1
On the set-up of data set [1]: method as in PMID 38859952. To be noted: DHA; cited from earlier work.
The subject of the next data set is PANC-1 tumors. Nature of the data set: PANC-1 subcutaneous xenograft antitumor activity. In kind it is in vivo, BALB/c nude mice. To be noted: vs control. The protocol:
(§2) Five‐week‐old male BALB/c nude mice were purchased from Shanghai Jihui Laboratory Animal Breeding Co., Ltd. (Shanghai, China). After a one‐week acclimatization period, PANC‐1 cells were subcutaneously injected at a dose of 5 × 10^6 cells per mouse. Four weeks post‐injection, once tumor volumes reached 50–100 mm^3, the tumor‐bearing animals were randomly divided into four groups, each consisting of six animals. ZQJ29 was prepared in a 0.5% CMC‐Na solution, while OXA was dissolved in saline. The control group was treated with oral gavage of 0.5% CMC‐Na, while the positive control group was administered intraperitoneal injections of OXA at a dosage of 3 mg kg^−1 every three days. The test groups were treated with oral gavage of ZQJ29 at dosages of 25 and 50 mg kg day^−1. Mouse weights were monitored every other day. Tumor measurements were taken every other day using calipers, and the tumor volume was calculated using the following formula: ½ × length × width^2. Drug administered continued for three weeks. After blood collection at the end of the administration, the mice were humanely euthanized, and their vital organs were promptly harvested, preserved, and embedded in paraffin for H&E staining.

Data set [2] can be described thus: Toxicity in tumor-bearing mice (body weight, ALT/AST, H&E). In kind it is in vivo, BALB/c nude mice. On the procedure:
as §2
Following the experiments, organs from mice, including hearts, livers, spleens, lungs, and kidneys were swiftly collected and fixed in 4% paraformaldehyde overnight. The tissues were then embedded in paraffin. Afterward, 4‐µm‐thick sections were produced and stained using H&E. Images of these sections were captured with a Leica DM4000b microscope (Germany).
Blood samples were collected and placed in a biochemical incubator for 30 min, followed by centrifugation at 6000 rpm for 10 min. The supernatant was used to measure the following indicators: ALT and AST (both from Jiancheng, Nanjing, China).

Residues, ends and D or L forms follow the SMILES beside them. *: point of attachment. Cbz = O=C(OCc1ccccc1)*; CH2F = FC*

For the molecule `Cn1cnc(N)c2ncnc1-2` [3‐MA, 3‐methyladenine], the “reversal of ZQJ29-induced cell death by co-treatment” value (“reversal of ZQJ29-induced cell death” for short) in the data set with PANC-1 and KP4 cells was “did not reverse”.
By IC50 is commonly meant the midpoint of a concentration-inhibition curve. For `N.N.[Cl][Pt][Cl]` [DDP], the IC50 was more than 10 µM in the data set with PANC-1; more than 10 µM with KP4; more than 10 µM in the data set with A549; more than 10 µM in the data set on H1975 (H1975, 72 h); 0.036 ± 0.028 µM with MCF; 0.282 ± 0.11 µM in the data set on HeLa. Besides, the IC50 in the data set on HCT116 was 0.071 ± 0.042 µM; with JHH7, more than 10 µM; with HEK-293T, more than 10 µM; in the data set on LX2 (72 h), more than 10 µM; with THLE-2, 1.46 ± 0.984 µM; in the data set with HPDE6-C7 (72 h) it was more than 10 µM.
Turning to `C[C@H]1[C@@H](O)O[C@@H]2O[C@@]3(C)CC[C@H]4[C@H](C)CC[C@@H]1[C@@]24OO3` [DHA, dihydroartemisinin], the IC50 with PANC-1 (Homo sapiens) was more than 10 µM; in the data set with KP4 (Homo sapiens, KP-4), more than 10 µM; in the data set on A549 (Homo sapiens) it was more than 10 µM; with H1975 (Homo sapiens, NCI-H1975, 72 h), more than 10 µM; in the data set with MCF it was more than 10 µM; in the data set on HeLa (Homo sapiens), more than 10 µM. Also, the IC50 with HCT116 (Homo sapiens, HCT-116) is more than 10 µM; with JHH7, more than 10 µM; in the data set on HEK-293T (Homo sapiens), more than 10 µM; in the data set with LX2 (Homo sapiens, LX-2, 72 h), more than 10 µM; in the data set on THLE-2 (Homo sapiens) it was 8.66 ± 0.714 µM; in the data set on HPDE6-C7 (HPDE6c7, 72 h) it was more than 10 µM. Moreover, the t1/2 in data set [1] was 30 min.
For `CCOC(=O)c1ccc(NC2CCCCC2)c(N)c1` [Fer‐1, Ferrostatin‐1], the “reversal of ZQJ29-induced cell death” value with PANC-1 and KP4 cells is “reversed”.
Still for that read-out and setting: next, `CN1C(=O)C(Cc2c[nH]c3ccccc23)NC1=S` (stereo not drawn) [Nec‐1, necrostatin‐1]: “did not reverse”.
Take `O=C1[O][Pt]2([NH][C@@H]3CCCC[C@H]3[NH]2)[O]C1=O` [OXA, oxaliplatin]: the IC50 with PANC-1 is more than 10 µM; in the data set with KP4, more than 10 µM; in the data set on A549 it was 2.47 ± 0.41 µM; with H1975 (H1975, 72 h), 3.49 ± 0.552 µM; in the data set on MCF, 0.196 ± 0.087 µM; with HeLa, 0.51 ± 0.121 µM. Moreover, the IC50 in the data set on HCT116 is 0.103 ± 0.026 µM; in the data set with JHH7, 7.15 ± 2.6 µM; in the data set with HEK-293T, more than 10 µM; in the data set with LX2 (72 h) it was 2.46 ± 0.56 µM; with THLE-2, 0.777 ± 0.188 µM; in the data set with HPDE6-C7 (72 h) it was 2.7 ± 0.567 µM. Also, the tumor growth result with PANC-1 tumors (ZQJ29 25 and 50 mg/kg/day oral gavage, OXA 3 mg/kg i.p. every three days, three weeks) is “effectively inhibited”. For the same molecule, the “expression of Ki67 and PCNA in tumor tissue (IHC)” value in the data set on PANC-1 tumors (after treatment) is listed as “significantly reduced”. The “post-experiment levels of ALT and AST” value in data set [2] (ZQJ29 50 mg/kg, OXA 3 mg/kg i.p.) is given as “significantly elevated”. Also, the “body weight during the whole treatment period” value in data set [2] (tumor-bearing nude mice, three weeks) is recorded as “decreased significantly”.
In the case of `CC1CCC2C(C)C(OCCNCCOC3OC4OC5(C)CCC6C(C)CCC(C3C)C46OO5)OC3OC4(C)CCC1C32OO4` (stereo not drawn) [SM1044], the IC50 was found to be 5.95 ± 0.501 µM with PANC-1 (Homo sapiens); 3 ± 0.799 µM in the data set on KP4 (Homo sapiens, KP-4); 3.45 ± 1.76 µM in the data set on A549 (Homo sapiens); 6.88 ± 0.014 µM in the data set on H1975 (Homo sapiens, NCI-H1975, 72 h); 1.33 ± 0.303 µM with MCF; 2.29 ± 0.429 µM in the data set on HeLa (Homo sapiens). In addition, the IC50 in the data set on HCT116 (Homo sapiens, HCT-116) was 4.98 ± 2.36 µM; with JHH7, 2.13 ± 0.573 µM; with HEK-293T (Homo sapiens), more than 10 µM; in the data set with LX2 (Homo sapiens, LX-2, 72 h), more than 10 µM; with THLE-2 (Homo sapiens) it was more than 10 µM; in the data set with HPDE6-C7 (HPDE6c7, 72 h), more than 10 µM.
For `COC(=O)C[C@H](NC(=O)[C@H](C)NC(=O)[C@@H](NC(=O)OCc1ccccc1)C(C)C)C(=O)CF` [Z‐VAD‐FMK] (Cbz-Val-Ala-Asp(OMe)-CH2F), the “reversal of ZQJ29-induced cell death” value in the data set with PANC-1 and KP4 cells is “did not reverse”.
